Test results published in PMC7855930, “Nontoxic Cobalt(III) Schiff Base Complexes with Broad‐Spectrum Antifungal Activity” (Chemistry (Weinheim an Der Bergstrasse, Germany), 2020).
Where two headings read alike, the source gives them in different places.

Key:
[1] = tested on: C. neoformans ATCC 208821; assay: Antifungal MIC assay (broth microdilution in YNB); type: cell-based, Cryptococcus neoformans
Source text: Yeast strains: Candida albicans (ATCC 90028, NCCLS 11), Cryptococcus neoformans (ATCC 208821, H99 type strain), Candida tropicalis (ATCC 750, type strain), Candida glabrata (ATCC 90030, NCCLS 84) and Cryptococcus deuterogattii (ATCC 32609, type strain) were obtained from the American Type Culture Collection (ATCC). Cryptococcus deuterogattii (CBS 7750), Candida auris (CBS 10913) and Candida auris (CBS 12373) were obtained from the CBS‐KNAW culture collection. The strains were maintained on glycerol/YPD (yeast extract‐peptone dextrose) broth (20:80 v/v) at −80 °C.
Antifungal minimum inhibitory concentration (MIC) assay: The cobalt complexes and antifungal control compounds were serially diluted in 50 μL of Yeast Nitrogen Broth (YNB; BD, Cat No. 233520 supplemented with 2 % glucose and 10 mM ammonium sulfate) two‐fold across the wells of non‐binding surface (NBS) 96‐well plates (Corning; Cat. No. 3641). Plates were set up in quadruplicate for each strain tested, and two biological replicates were conducted on separate assay days.
Yeast strains were cultured from glycerol onto YPD (Becton Dickinson 242720) agar at 30 °C for 72 h. For each strain, a minimum of five single colonies were taken from the agar plate and dissolved in sterile water and adjusted to form a yeast suspension of 1×10^6 to 5×10^6 CFU mL^−1 (as determined by OD530). The suspension was subsequently diluted into YNB media, and added to each well of the compound containing plates, giving a final cell density of 2.5×10^3 CFU mL^−1 and a total volume of 100 μL. Plates were covered and incubated at 35 °C for 36 h without shaking.
Growth inhibition of all strains was determined visually where the MIC was recorded as the lowest compound concentration with no visible growth. Fluconazole (Sigma F8929), ketoconazole (Sigma K1003) and micafungin (Sigma SML2288) were used as internal positive inhibitor controls for every strain tested.

[2] = tested on: Escherichia coli ATCC 25922; assay: CO-ADD bacterial broth microdilution MIC assay; type: cell-based; conditions: CAMHB, 37 °C, 18 h, ≥ 80% inhibition; for MIC: Escherichia coli, ATCC25922, read-out: MIC Ec (Escherichia coli ATCC 25922)
[3] = tested on: Acinetobacter baumannii ATCC 19606; assay: CO-ADD bacterial broth microdilution MIC assay; type: cell-based; conditions: CAMHB, 37 °C, 18 h, ≥ 80% inhibition; for MIC: Acinetobacter baumannii, ATCC19606, read-out: MIC Ab (Acinetobacter baumannii ATCC 19606)
[4] = tested on: Pseudomonas aeruginosa ATCC 27853; assay: CO-ADD bacterial broth microdilution MIC assay; type: cell-based; conditions: CAMHB, 37 °C, 18 h, ≥ 80% inhibition; for MIC: Pseudomonas aeruginosa, ATCC27853, read-out: MIC Pa (Pseudomonas aeruginosa ATCC 27853)
HEK293 cells = assay: Cytotoxicity assay (resazurin); type: cell-based, human; conditions: 20 h incubation, 0.8–100 μM; read-out: Tox CC50 (cytotoxicity against HEK293 cells)
Description: (§1) Cytotoxicity assay: HEK293 ATCC CRL‐1573 human embryonic kidney cells suspended in DMEM media (Gibco; 11330332) supplemented with 10 % FBS (GE; SH30084.03) and 100 U mL^−1 each penicillin/streptomycin (Invitrogen; 15070063) were counted manually in a Neubauer haemocytometer and seeded into 384‐well, black wall, clear bottom tissue culture plates (Corning; Cat. No. 3712) at 5000 cells per well in a volume of 20 μL. Manually, 20 μL of each compound dilution was plated in duplicate on the cells, for a final concentration range of 0.8–100 μM. The cells were incubated together with the compounds for 20 h at 37 °C, 5 % CO2.
(§2) Cytotoxicity (or cell viability) was measured by fluorescence, ex: 560/10 nm, em: 590/10 nm (F560/590), after addition of 5 μL of 25 μg mL^−1 resazurin ([…]; Sigma R7017) and after further incubation for 3 h at 37 °C in 5 % CO2, using media only as negative control and cells without inhibitors as positive control. CC50 (concentration at 50 % cytotoxicity) were calculated by curve fitting the inhibition values vs. log(concentration) of four replicates using a sigmoidal dose‐response function, with variable fitting values for bottom, top and slope using Prism 8. Tamoxifen (Sigma T5648) was used as internal control on each plate.

Cyclic voltammetry = type: physicochemical; conditions: DMF with 0.1 M TBAP (this work)
Description: Cyclic voltammetry: Electrochemical measurements were carried out in the same manner as reported previously. ^[25b] Experiments were conducted using a Pine WaveNow potentiostat with a three‐electrode setup consisting of a glassy carbon working electrode, a platinum counter electrode, and an Ag wire quasi‐reference electrode. Complexes were dissolved in anhydrous DMF with 0.10 M [Bu4N][PF6] (TBAP) as the supporting electrolyte. Potentials were referenced using an internal standard of the ferrocene/ferricenium couple at 0.45 V vs. the saturated calomel electrode (SCE). ^[33] The sample cell was deoxygenated by bubbling nitrogen gas through the solution prior to analysis and maintained under a blanket of nitrogen during the experiment.

CO-ADD bacterial panel = assay: CO-ADD bacterial panel, overall antibacterial activity; type: cell-based; conditions: CO‐ADD screening, Table S2
Description: CO-ADD High Throughput Screening
Bacterial broth microdilution minimum inhibitory concentration (MIC) assay Bacterial strains were cultured in Cation-adjusted Mueller Hinton broth (CAMHB; Bacto Laboratories 212322) at 37 °C overnight. A sample of each culture was then diluted 40-fold in fresh CAMHB and incubated at 37 °C for 1.5-3 h. The resultant mid-log phase cultures were diluted with CAMHB (CFU/mL measured by OD600), then added to each well of the compound-containing plates (384-well non-binding surface (NBS) plates; Corning CLS3640), giving a cell density of 5 × 10^5 CFU/mL and a total volume of 50 µL. Plates were covered and incubated at 37 °C for 18 h without shaking. Inhibition of bacterial growth was determined measuring absorbance at 600 nm (OD600), using media only as negative control and bacteria without inhibitors as positive control. MIC values were determined as the lowest concentration at which the growth was inhibited at ≥ 80%. Colistin sulfate (Sigma C4461) and vancomycin HCl (Sigma 861987) were used as positive inhibitor controls on each plate for Gram-negative and Gram-positive bacteria, respectively.
Figure S1. 1H NMR (400 MHz) of [Co(ATS)(DMAP)2]NO3 (3) in DMSO-d6.
(1 picture or pasted object on this page, not shown here)

[5] = Cytotoxicity assay (resazurin); type: cell-based, human; conditions: human, HEK293 cells (ATCC CRL-1573); 20 h incubation, 0.8–100 μM; read-out: Tox CC50 (cytotoxicity against HEK293 cells)
Description: as §1, §2

[6] = range of MICs, n=8, 35 °C, 36 h, visual, read-out: MIC C. neoformans ATCC 208821
[7] = Cryptococcus neoformans, ATCC208821, Table S1, read-out: MIC Cryptococcus neoformans ATCC 208821
[8] = Cryptococcus neoformans, ATCC208821, range of MICs, n=8, 35 °C, 36 h, visual, read-out: MIC C. neoformans ATCC 208821

## O=[N+]([O-])[O-].O=[N+]([O-])[O-].[Co+2] [Co, Co(NO3)2, reference compound]
[1]; Table S1
  MIC Cryptococcus neoformans ATCC 208821: > 29.1 µg/mL
[1]; [6]
  MIC: >100 µM
[2]
  MIC Ec (Escherichia coli ATCC 25922): > 32 µg/mL
[3]
  MIC Ab (Acinetobacter baumannii ATCC 19606): > 32 µg/mL
[4]
  MIC Pa (Pseudomonas aeruginosa ATCC 27853): > 32 µg/mL
HEK293 cells
  CC50: > 100 µM

## CC1=[N+]2N=C(N)[S][Co-3]23([n+]2ccc(N(C)C)cc2)([n+]2ccc(N(C)C)cc2)[S]C(N)=N[N+]3=C1C.O=[N+]([O-])[O-] [Compound 3, [Co(ATS)(DMAP)2]NO3]
[1]; Table S1
  MIC Cryptococcus neoformans ATCC 208821: 0.46 to 0.93 µg/mL
[2]
  MIC Ec (Escherichia coli ATCC 25922): > 32 µg/mL
[3]
  MIC Ab (Acinetobacter baumannii ATCC 19606): > 32 µg/mL
[4]
  MIC Pa (Pseudomonas aeruginosa ATCC 27853): > 32 µg/mL
HEK293 cells
  CC50: > 100 µM
Cyclic voltammetry
  First reduction E pc: −0.69 V vs. SCE
  Second reduction E 1/2: −1.17 V vs. SCE

## O=[N+]([O-])[O-].[NH3+][Co-3]123([NH3+])[O]c4c(F)cccc4C=[N+]1c1ccccc1[N+]2=Cc1cccc(F)c1[O]3 [Compound 7, [Co(3F‐salophen)(NH3)2]NO3]
CO-ADD bacterial panel
  Antibacterial activity: neither antibacterial nor antifungal activity
[1]; Table S1
  MIC Cryptococcus neoformans ATCC 208821: 47.8 µg/mL
[1]; [6]
  MIC: 100 µM
[2]
  MIC Ec (Escherichia coli ATCC 25922): > 32 µg/mL
[3]
  MIC Ab (Acinetobacter baumannii ATCC 19606): > 32 µg/mL
[4]
  MIC Pa (Pseudomonas aeruginosa ATCC 27853): > 32 µg/mL
HEK293 cells
  CC50: > 100 µM
Cyclic voltammetry
  First reduction E pc: −0.75 V vs. SCE
  Second reduction E 1/2: −1.08 V vs. SCE

## CC(=N\NC(N)=S)/C(C)=N/NC(N)=S [Compound L1]
[1]; [7]
  MIC: > 23.2 µg/mL
[1]; [8]
  MIC: > 100 µM
[2]
  MIC: > 32 µg/mL
[3]
  MIC: > 32 µg/mL
[4]
  MIC: > 32 µg/mL
[5]
  CC50 at 20 h: > 100 µM

## CC(/C=C(\O)C(F)(F)F)=N\CC/N=C(C)/C=C(\O)C(F)(F)F [Compound L2]
[1]; [7]
  MIC: > 33.2 µg/mL
[1]; [8]
  MIC: > 100 µM
[2]
  MIC: > 32 µg/mL
[3]
  MIC: > 32 µg/mL
[4]
  MIC: > 32 µg/mL
[5]
  CC50 at 20 h: > 100 µM

## Oc1c(F)cccc1/C=N/CC/N=C/c1cccc(F)c1O [Compound L3]
[1]; [7]
  MIC: > 30.4 µg/mL
[1]; [8]
  MIC: 100 µM
[2]
  MIC: > 32 µg/mL
[3]
  MIC: > 32 µg/mL
[4]
  MIC: > 32 µg/mL
[5]
  CC50 at 20 h: > 100 µM

## [Co(3F‐salophen)(3F‐BnNH2)2]NO3 [Compound 6]
[1]; Table S1
  MIC Cryptococcus neoformans ATCC 208821: 69.4 µg/mL
[1]; [6]
  MIC: 100 µM
[2]
  MIC Ec (Escherichia coli ATCC 25922): > 32 µg/mL
[3]
  MIC Ab (Acinetobacter baumannii ATCC 19606): > 32 µg/mL
[4]
  MIC Pa (Pseudomonas aeruginosa ATCC 27853): > 32 µg/mL
HEK293 cells
  CC50: > 100 µM
Cyclic voltammetry
  First reduction E pc: −0.59 V vs. SCE
  Second reduction E 1/2: −1.06 V vs. SCE
